# Assay results from patent publication US5580956A, “Phospholipase C-inhibiting peptides” (priority 1992, dated 1996).
# Peptide text beside a SMILES is read from it. * marks the point of attachment. Benzoyl(2,3-diOH) = O=C(c1cccc(O)c1O)*; Propanoyl(3-cHex) = O=C(CCC1CCCCC1)*; Cyclohexylacetyl = O=C(CC1CCCCC1)*; Cyclopropanecarbonyl = O=C(C1CC1)*; Octanoyl = CCCCCCCC(=O)*; X1 = O=C(c1ccc(O)cc1O)*; X2 = O=C(c1ccc(=O)oc1)*
# How the values were obtained:
# PLC-γ1 = molecular target: T1, PLC-γ1 (Bos taurus, UniProt P08487); experiment: PLC-inhibiting activity (release of [3H]inositol phosphate from [3H]PIP2); type: biochemical, bovine; settings: PI-PLC-γ1, 37° C., 10 minutes
# T1 construct: A sample (PLC-γ1) was prepared from bovine thymus according to the method of Y. Homma et al; from tissue; host or cells: bovine thymus
# T1 sequence (P08487 1-1291): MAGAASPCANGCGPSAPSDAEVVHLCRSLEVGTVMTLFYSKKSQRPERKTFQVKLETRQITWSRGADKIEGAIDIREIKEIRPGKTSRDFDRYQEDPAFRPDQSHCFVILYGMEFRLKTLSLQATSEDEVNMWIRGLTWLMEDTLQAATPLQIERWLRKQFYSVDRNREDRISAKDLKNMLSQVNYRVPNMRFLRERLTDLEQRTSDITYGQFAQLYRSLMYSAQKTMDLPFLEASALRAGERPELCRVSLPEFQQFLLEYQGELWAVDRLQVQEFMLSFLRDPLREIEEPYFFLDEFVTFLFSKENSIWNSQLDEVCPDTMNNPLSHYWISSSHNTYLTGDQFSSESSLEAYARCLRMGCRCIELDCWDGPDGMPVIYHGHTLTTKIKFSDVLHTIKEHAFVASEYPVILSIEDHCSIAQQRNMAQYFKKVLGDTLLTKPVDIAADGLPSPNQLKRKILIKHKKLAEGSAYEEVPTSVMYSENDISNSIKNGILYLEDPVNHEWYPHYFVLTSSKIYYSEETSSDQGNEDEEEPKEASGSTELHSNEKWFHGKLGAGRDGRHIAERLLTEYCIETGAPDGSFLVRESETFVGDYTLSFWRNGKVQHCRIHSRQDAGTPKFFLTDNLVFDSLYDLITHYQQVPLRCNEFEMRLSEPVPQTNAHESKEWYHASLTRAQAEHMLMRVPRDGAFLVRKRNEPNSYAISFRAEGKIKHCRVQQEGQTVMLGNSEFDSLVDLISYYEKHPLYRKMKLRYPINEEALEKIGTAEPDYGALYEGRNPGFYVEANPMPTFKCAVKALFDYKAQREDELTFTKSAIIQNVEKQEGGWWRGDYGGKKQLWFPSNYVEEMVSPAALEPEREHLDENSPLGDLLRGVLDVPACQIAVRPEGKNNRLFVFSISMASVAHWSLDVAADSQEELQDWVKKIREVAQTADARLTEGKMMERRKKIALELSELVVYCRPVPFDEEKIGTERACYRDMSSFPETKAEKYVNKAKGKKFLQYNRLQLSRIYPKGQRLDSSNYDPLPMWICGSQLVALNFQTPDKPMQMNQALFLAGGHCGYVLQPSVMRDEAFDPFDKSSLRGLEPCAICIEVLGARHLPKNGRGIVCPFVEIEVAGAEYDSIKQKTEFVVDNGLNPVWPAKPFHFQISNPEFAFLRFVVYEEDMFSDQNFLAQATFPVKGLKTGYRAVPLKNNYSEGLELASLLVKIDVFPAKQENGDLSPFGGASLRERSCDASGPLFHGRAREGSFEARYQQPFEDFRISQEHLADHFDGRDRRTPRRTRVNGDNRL
# Protocol: A sample (PLC-γ1) was prepared from bovine thymus according to the method of Y. Homma et al. described in Biochemical Journal [(Biochem. J.), 269, 13 (1990)]. A solution having the composition listed in Table 1 below was prepared in advance on the ice and the reaction was begun with heating to 37° C. After incubation for 10 minutes, 2 ml of a solution mixture of chloroform/methanol (2:[…]) was added thereto to stop the reaction. The resulting inositol phosphate was extracted with 0.5 ml of 1N hydrochloric acid. Two-phase distribution was carried out by centrifugation (2000×g, 3 minutes), and the amount of ^3 H contained in 0.7 ml of the supernatant was measured with scintillation counter. […] The obtained value of specific radioactivity was defined as "A", the value of specific radioactivity obtained when an equivalent amount of water was added instead of the aqueous solution of the test peptide was defined as "B", the value of specific radioactivity obtained when an equivalent amount of water was added instead of the sample and the aqueous solution of the test peptide was defined as "C", and the inhibition rate (X) was determined according to the following equation. X(%)=[…]
# KMS-4 cells = experiment: Cell proliferation-inhibiting activity (BrdU incorporation, Amersham Cell Proliferation Detection Kit); type: cell-based; settings: 17 hours with peptide, BrdU-stained cells
# Protocol: The following procedure was carried out with an Amersham Cell Proliferation Detection Kit. First, cells [KMS-4; M. Nanba et al., International Journal of Cancer, 32, 697 (1983)] were suspended in a DMEM culture medium (product of Nissui Seiyaku) containing 10% fetal calf serum to a concentration of 1-2×10^4 cells/ml, and 1 ml of the above-mentioned cell suspension was put into each well of a 24-well plate (product of Corning Co.). The cells were cultured for 2 days in a CO2 incubator (37° C., 5% CO2). Next, the culture medium was exchanged with a DMEM medium containing 10% fetal calf serum, and then the test peptide was added thereto and culturing was carried out for 17 hours. The culture medium was again exchanged with a serum-free DMEM medium, 0.5 ml of a solution of the reagents labelled 5-bromo-2'-deoxyuridine (BrdU) and 5-fluoro-2'-deoxyuridine (FdU) [10:1] diluted 1000-fold with the same medium was added to each well, and cultured for 2 hours. The culture medium was removed, and the cells were immobilized with an acetic acid/ethanol solution. The immobilized cells were stained according to the method for the Amersham Cell Proliferation Kit, and then further stained with a 1% Giemsa solution (product of Merck Co.). The number of cells incorporating BrdU and the total cell count within 1 field of vision of the microscope (approximately 200 cells) were determined, and the proportion (%) of stained cells per field of vision was calculated. Furthermore, the same procedure was repeated 10 times, and the average value thereof was defined as the cell proliferation activity (%). The cell proliferation-inhibiting activity was calculated in the following manner. The proliferation activity without addition of peptide was defined as "A", the proliferation activity with addition of the test peptide was defined as "B", and the cell proliferation inhibition rate (X) was determined according to the following equation. X (%)=[…]
# [1] = Concentration 120 μM (aqueous solution of test peptide), read-out: Inhibition rate (%)
Compound,Cell proliferation inhibition rate (%) (KMS-4 cells; Concentration 31 μM),inhibition at 120 µM (stock) (PLC-γ1; [1]) [%],other results
H-Ser-Leu-Val-Glu-Leu-Val-Ser-Tyr-Tyr-Glu-Lys-His-Ala-OH (H-SLVELVSYYEKHA-OH) [Compound (I-6)],–,–,Inhibition rate (%) (PLC-γ1; Concentration 105 μM (aqueous solution of test peptide)): 70%
"CSCC[C@H](NC(=O)[C@H](CCCCN)NC(=O)[C@H](CCCNC(=N)N)NC(=O)[C@H](Cc1ccc(O)cc1)NC(=O)[C@H](CC(C)C)NC(=O)c1cccc(O)c1O)C(=O)N[C@@H](CCCNC(=N)N)C(=O)N[C@@H](CC(C)C)C(=O)N[C@@H](CCCNC(=N)N)C(=O)N[C@@H](Cc1ccc(O)cc1)C(=O)N1CCC[C@H]1C(=O)N[C@H](C(N)=O)C(C)C [(I-13), (HO)2 C6 H3 CO-Leu-Tyr-Arg-Lys-Met-Arg-Leu-Arg-Tyr-Pro-Val-NH2] ({Benzoyl(2,3-diOH)}-LYRKMRLRYPV-NH2)",69,–,"inhibition at 610 µM (stock) (PLC-γ1; Concentration 610 μM (aqueous solution of test peptide), read-out: Inhibition rate (%)): 89%"
"CSCC[C@H](NC(=O)[C@H](CCCCN)NC(=O)[C@H](CCCNC(=N)N)NC(=O)[C@H](Cc1ccc(O)cc1)NC(=O)[C@H](CC(C)C)NC(=O)c1ccc(O)cc1O)C(=O)N[C@@H](CCCNC(=N)N)C(=O)N[C@@H](CC(C)C)C(=O)N[C@@H](CCCNC(=N)N)C(=O)N[C@@H](Cc1ccc(O)cc1)C(=O)N1CCC[C@H]1C(=O)N[C@H](C(N)=O)C(C)C [(I-14), (HO)2 C6 H3 CO-Leu-Tyr-Arg-Lys-Met-Arg-Leu-Arg-Tyr-Pro-Val-NH2] (X1-LYRKMRLRYPV-NH2)",59,45,–
"CSCC[C@H](NC(=O)[C@H](CCCCN)NC(=O)[C@H](CCCNC(=N)N)NC(=O)[C@H](Cc1ccc(O)cc1)NC(=O)[C@H](CC(C)C)NC(=O)c1ccc(=O)oc1)C(=O)N[C@@H](CCCNC(=N)N)C(=O)N[C@@H](CC(C)C)C(=O)N[C@@H](CCCNC(=N)N)C(=O)N[C@@H](Cc1ccc(O)cc1)C(=O)N1CCC[C@H]1C(=O)N[C@H](C(N)=O)C(C)C [(I-12), C5 H3 O2 CO-Leu-Tyr-Arg-Lys-Met-Arg-Leu-Arg-Tyr-Pro-Val-NH2] (X2-LYRKMRLRYPV-NH2)",69,40,–
"H-YRKMRLRY-NH2 [Compound (I-9), H-Tyr-Arg-Lys-Met-Arg-Leu-Arg-Tyr-NH2]",–,–,"inhibition at 850 µM (stock) (PLC-γ1; Concentration 850 μM (aqueous solution of test peptide), read-out: Inhibition rate (%)): 34%; Cell proliferation inhibition rate (%) (KMS-4 cells; Concentration 42 μM): 50%"
"CSCC[C@H](NC(=O)[C@H](CCCCN)NC(=O)[C@H](CCCNC(=N)N)NC(=O)[C@H](Cc1ccc(O)cc1)NC(=O)[C@H](CC(C)C)NC(=O)CCC1CCCCC1)C(=O)N[C@@H](CCCNC(=N)N)C(=O)N[C@@H](CC(C)C)C(=O)N[C@@H](CCCNC(=N)N)C(=O)N[C@@H](Cc1ccc(O)cc1)C(=O)N1CCC[C@H]1C(=O)N[C@H](C(N)=O)C(C)C [(I-16), C6 H11 CH2 CH2 CO-Leu-Tyr-Arg-Lys-Met-Arg-Leu-Arg-Tyr-Pro-Val-NH2] ({Propanoyl(3-cHex)}-LYRKMRLRYPV-NH2)",84,51,–
"CSCC[C@H](NC(=O)[C@H](CCCCN)NC(=O)[C@H](CCCNC(=N)N)NC(=O)[C@H](Cc1ccc(O)cc1)NC(=O)[C@H](CC(C)C)NC(=O)CC1CCCCC1)C(=O)N[C@@H](CCCNC(=N)N)C(=O)N[C@@H](CC(C)C)C(=O)N[C@@H](CCCNC(=N)N)C(=O)N[C@@H](Cc1ccc(O)cc1)C(=O)N1CCC[C@H]1C(=O)N[C@H](C(N)=O)C(C)C [(I-25), C6 H11 CH2 CO-Leu-Tyr-Arg-Lys-Met-Arg-Leu-Arg-Tyr-Pro-Val-NH2] (Cyclohexylacetyl-LYRKMRLRYPV-NH2)",75,50,–
"CSCC[C@H](NC(=O)[C@H](CCCCN)NC(=O)[C@H](CCCNC(=N)N)NC(=O)[C@H](Cc1ccc(O)cc1)NC(=O)[C@H](CC(C)C)NC(=O)C1CC1)C(=O)N[C@@H](CCCNC(=N)N)C(=O)N[C@@H](CC(C)C)C(=O)N[C@@H](CCCNC(=N)N)C(=O)N[C@@H](Cc1ccc(O)cc1)C(=O)N1CCC[C@H]1C(=O)N[C@H](C(N)=O)C(C)C [(I-24), C3 H5 CO-Leu-Tyr-Arg-Lys-Met-Arg-Leu-Arg-Tyr-Pro-Val-NH2] (Cyclopropanecarbonyl-LYRKMRLRYPV-NH2)",–,55,Cell proliferation inhibition rate (%) (KMS-4 cells; Concentration 32 μM): 66%
"CCCCCCCC(=O)N[C@@H](CC(C)C)C(=O)N[C@@H](Cc1ccc(O)cc1)C(=O)N[C@@H](CCCNC(=N)N)C(=O)N[C@@H](CCCCN)C(=O)N[C@@H](CCSC)C(=O)N[C@@H](CCCNC(=N)N)C(=O)N[C@@H](CC(C)C)C(=O)N[C@@H](CCCNC(=N)N)C(=O)N[C@@H](Cc1ccc(O)cc1)C(=O)N1CCC[C@H]1C(=O)N[C@H](C(N)=O)C(C)C [(I-21), CH3 (CH2)6 CO-Leu-Tyr-Arg-Lys-Met-Arg-Leu-Arg-Tyr-Pro-Val-NH2] (Octanoyl-LYRKMRLRYPV-NH2)",56,86,–
H-Glu-Lys-His-Ala-Leu-Tyr-Arg-Lys-Met -Arg-Leu-Arg-Tyr-Pro-Val-OH (H-EKHALYRKMRLRYPV-OH) [Compound (I-4)],–,–,Inhibition rate (%) (PLC-γ1; Concentration 120 μM (aqueous solution of test peptide)): 73%
H-Leu-Tyr-Arg-Lys-Met-Arg-Leu-Arg-Tyr-Pro-Val-OH (H-LYRKMRLRYPV-OH) [Compound (I-5)],–,–,Inhibition rate (%) (PLC-γ1; Concentration 125 μM (aqueous solution of test peptide)): 70%
H-SLVELVSYYEKHALYRKMRLRYPV-OH [Compound (I-1)],–,–,"inhibition at 15 µM (stock) (PLC-γ1; Concentration 15 μM (aqueous solution of test peptide), read-out: Inhibition rate (%)): 55%; inhibition at 55 µM (stock) (PLC-γ1; Concentration 55 μM (aqueous solution of test peptide), read-out: Inhibition rate (%)): 88%"
"H-YRKMRLRY-OH [Compound (I-7), H-Tyr-Arg-Lys-Met-Arg-Leu-Arg-Tyr-OH]",–,70,–
